Experimental data from publication PMC10140010 (Investigational New Drugs, 2023).
Values joined by “and” are separate entries in the source; they are usually repeats but may differ in a detail not shown here. Identical values can stand only once.

How the values were obtained:
OATP1B3 [1] = experiment: Uptake inhibitor investigation in HEK293 cells expressing transporter; type: in vitro ADME
CYP1A2 = experiment: Hepatic enzyme induction in human hepatocytes; type: in vitro ADME; settings: 10 µM, human hepatocytes from three donors
Description: (§1) Human hepatocytes derived from three donors were used for evaluating for hepatic enzyme inducing activity. […] The gene expression related to cytochrome P450 isoenzyme CYP3A4 in hepatocytes of one of the three donors increased with iruplinalkib 1 µM.

CYP3A4 = experiment: Hepatic enzyme induction in human hepatocytes (gene expression); type: in vitro ADME
Description: as §1

FGFR1 = FGFR1 (Homo sapiens, UniProt P11362); experiment: Z'-LYTE kinase selectivity
OAT3 = experiment: Uptake substrate investigation in HEK293 cells expressing transporter
Description: (§2) The engineered NIH-3T3 (CD74-ROS1 fusion gene) cells was obtained from Nanjing GenScript Biotechnology Co., Ltd. The engineered Ba/F3 (SLC34A2-ROS1 fusion gene) cell line was obtained from Kyinno Biotechnology (Beijing) Co., Ltd. The HCC-78 (SLC34A2-ROS1 fusion gene) cell line was purchased from Shanghai Hongshun Biotechnology Co., Ltd. The engineered NIH-3T3 (CD74-ROS1 fusion gene) cells was obtained from Nanjing GenScript Biotechnology Co., Ltd. The engineered HEK293 cell lines with OATP1B1 (Lot. No ESH6G27), OATP1B3 (Lot. No ESH7G27), OCT2 (Lot. No ESH9G27), OAT1 (Lot. No ESHCG27), OAT3 (Lot. […] No ESHDG27) were purchased from GenoMembrane and validated using the specific substrate for each transporter. All cells were cultured at 37℃ in a 5% CO2 atmosphere. Cell culture reagents were obtained from Life Technologies, Inc. See Supplemental Table 1 for details on the source of the cell lines and the media used.

MRP2 = target: T1, MRP2 (Homo sapiens, UniProt Q92887); experiment: MRP2 inhibitor investigation; type: in vitro ADME
T1 construct: host or cells: membrane vesicles ('Membrane capsule'), MRP2 versus NC control, with ATP or AMP

OATP1B3 [2] = target: T2, OATP1B3 (Homo sapiens, UniProt Q9NPD5); experiment: Uptake substrate investigation in HEK293 cells expressing transporter; settings: for Uptake transport activity, Mean: OATP1B3-293; for Uptake transport activity, Mean / Ratio of uptake transit activity / Uptake transport activity, Net value: Suppl. Table 11; for Ratio of uptake transit activity / Uptake transport activity, Net value: OATP1B3-293 vs MOCK293
T2 sequence (Q9NPD5 1-702): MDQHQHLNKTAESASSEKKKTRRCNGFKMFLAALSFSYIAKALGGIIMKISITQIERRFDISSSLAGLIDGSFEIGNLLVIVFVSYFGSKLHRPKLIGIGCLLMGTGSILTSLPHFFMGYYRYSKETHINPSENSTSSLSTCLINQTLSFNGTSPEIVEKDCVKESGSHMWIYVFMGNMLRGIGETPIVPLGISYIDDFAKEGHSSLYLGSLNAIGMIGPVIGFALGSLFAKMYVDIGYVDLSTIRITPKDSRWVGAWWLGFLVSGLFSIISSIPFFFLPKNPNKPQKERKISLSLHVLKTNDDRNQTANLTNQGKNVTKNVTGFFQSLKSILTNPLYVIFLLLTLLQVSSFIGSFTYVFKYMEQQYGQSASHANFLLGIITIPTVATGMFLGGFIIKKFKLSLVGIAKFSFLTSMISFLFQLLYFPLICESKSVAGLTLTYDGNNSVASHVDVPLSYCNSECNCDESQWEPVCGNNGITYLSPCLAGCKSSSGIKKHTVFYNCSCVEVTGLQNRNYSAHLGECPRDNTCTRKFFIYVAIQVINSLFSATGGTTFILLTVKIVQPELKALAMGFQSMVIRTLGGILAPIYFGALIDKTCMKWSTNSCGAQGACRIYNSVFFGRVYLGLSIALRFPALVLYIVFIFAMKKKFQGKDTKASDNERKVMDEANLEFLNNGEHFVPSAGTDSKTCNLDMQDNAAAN
Description: as §2

OATP1B3 [3] = experiment: as above
Description: as §2

CYP2B6 = experiment: Hepatic enzyme induction in human hepatocytes (gene expression); type: in vitro ADME
[4] = Recovery in dialysis device and stability in plasma during dialysis; type: in vitro ADME; settings: 0.2, 2 and 10 µM, all species
Description: At three test concentrations (0.2, 2 and 10 µM), the plasma protein binding rate of iruplinalkib is as follows (Fig. 3a). […] With the increase of concentration, the protein binding rates of iruplinalkib in rat plasma decreased gradually, showing a certain concentration dependence, and there was no concentration dependence of protein binding rate observed in other species plasma.

[5] = human, HEK293 cells expressing OATP1B3, probe ATV (atorvastatin), 1 μM, read-out: Inhibition rate
[6] = 10 µM, human hepatocytes from three donors
[7] = MOCK293, test substrate 10 μM, no inhibitor, OAT3 pre-test
[8] = OATP1B1-293 (so in the source), test substrate 10 μM, no inhibitor, OAT3 pre-test
[9] = transporter cells vs MOCK293, test substrate 10 μM, no inhibitor, OAT3 pre-test
[10] = MOCK293, test substrate 10 μM, no inhibitor, OATP1B3 pre-test
[11] = OATP1B1-293 (so in the source), test substrate 10 μM, no inhibitor, OATP1B3 pre-test
[12] = transporter cells vs MOCK293, test substrate 10 μM, no inhibitor, OATP1B3 pre-test

T1 sequence (Q92887 whole entry): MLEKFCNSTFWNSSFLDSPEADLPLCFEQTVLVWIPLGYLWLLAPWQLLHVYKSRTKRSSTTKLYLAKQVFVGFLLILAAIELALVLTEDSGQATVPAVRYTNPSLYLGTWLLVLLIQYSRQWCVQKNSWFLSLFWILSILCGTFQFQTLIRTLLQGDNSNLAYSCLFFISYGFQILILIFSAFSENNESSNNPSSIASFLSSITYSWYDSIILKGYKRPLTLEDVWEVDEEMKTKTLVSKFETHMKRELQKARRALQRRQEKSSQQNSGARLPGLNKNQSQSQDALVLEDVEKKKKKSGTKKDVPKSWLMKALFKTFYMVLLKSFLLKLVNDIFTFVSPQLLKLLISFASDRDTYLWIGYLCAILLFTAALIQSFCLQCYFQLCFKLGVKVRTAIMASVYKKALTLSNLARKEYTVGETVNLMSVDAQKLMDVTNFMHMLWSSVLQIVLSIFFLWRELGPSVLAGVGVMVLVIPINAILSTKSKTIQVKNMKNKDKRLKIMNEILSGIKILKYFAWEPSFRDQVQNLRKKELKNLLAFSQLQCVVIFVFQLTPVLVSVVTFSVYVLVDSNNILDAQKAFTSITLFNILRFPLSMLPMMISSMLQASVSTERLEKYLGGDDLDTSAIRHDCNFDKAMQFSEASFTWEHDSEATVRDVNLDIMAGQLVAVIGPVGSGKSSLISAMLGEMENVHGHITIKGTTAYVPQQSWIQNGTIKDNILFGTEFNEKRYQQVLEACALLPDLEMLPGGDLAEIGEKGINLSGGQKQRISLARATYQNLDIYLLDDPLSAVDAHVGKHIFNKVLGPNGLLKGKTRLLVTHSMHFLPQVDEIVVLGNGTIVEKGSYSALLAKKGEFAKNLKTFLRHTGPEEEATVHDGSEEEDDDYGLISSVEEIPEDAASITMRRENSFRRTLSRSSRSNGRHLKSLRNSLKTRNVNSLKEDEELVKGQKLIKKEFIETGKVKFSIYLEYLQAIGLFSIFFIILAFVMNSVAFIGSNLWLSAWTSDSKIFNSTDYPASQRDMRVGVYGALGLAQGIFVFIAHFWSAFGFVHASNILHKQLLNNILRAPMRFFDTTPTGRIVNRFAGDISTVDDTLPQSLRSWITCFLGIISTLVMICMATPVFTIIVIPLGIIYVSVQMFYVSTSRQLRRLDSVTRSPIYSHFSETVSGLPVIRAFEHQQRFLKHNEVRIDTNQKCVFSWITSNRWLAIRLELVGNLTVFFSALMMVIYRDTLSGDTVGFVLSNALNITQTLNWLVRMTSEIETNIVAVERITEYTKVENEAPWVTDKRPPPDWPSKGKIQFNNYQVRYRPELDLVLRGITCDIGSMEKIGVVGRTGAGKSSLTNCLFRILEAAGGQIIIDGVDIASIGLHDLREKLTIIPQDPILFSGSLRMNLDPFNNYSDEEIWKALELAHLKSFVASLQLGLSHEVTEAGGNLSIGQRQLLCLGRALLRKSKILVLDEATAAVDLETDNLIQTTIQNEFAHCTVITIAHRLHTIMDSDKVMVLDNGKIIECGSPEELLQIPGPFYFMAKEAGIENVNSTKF
Sequence of FGFR1 (P11362 22-822): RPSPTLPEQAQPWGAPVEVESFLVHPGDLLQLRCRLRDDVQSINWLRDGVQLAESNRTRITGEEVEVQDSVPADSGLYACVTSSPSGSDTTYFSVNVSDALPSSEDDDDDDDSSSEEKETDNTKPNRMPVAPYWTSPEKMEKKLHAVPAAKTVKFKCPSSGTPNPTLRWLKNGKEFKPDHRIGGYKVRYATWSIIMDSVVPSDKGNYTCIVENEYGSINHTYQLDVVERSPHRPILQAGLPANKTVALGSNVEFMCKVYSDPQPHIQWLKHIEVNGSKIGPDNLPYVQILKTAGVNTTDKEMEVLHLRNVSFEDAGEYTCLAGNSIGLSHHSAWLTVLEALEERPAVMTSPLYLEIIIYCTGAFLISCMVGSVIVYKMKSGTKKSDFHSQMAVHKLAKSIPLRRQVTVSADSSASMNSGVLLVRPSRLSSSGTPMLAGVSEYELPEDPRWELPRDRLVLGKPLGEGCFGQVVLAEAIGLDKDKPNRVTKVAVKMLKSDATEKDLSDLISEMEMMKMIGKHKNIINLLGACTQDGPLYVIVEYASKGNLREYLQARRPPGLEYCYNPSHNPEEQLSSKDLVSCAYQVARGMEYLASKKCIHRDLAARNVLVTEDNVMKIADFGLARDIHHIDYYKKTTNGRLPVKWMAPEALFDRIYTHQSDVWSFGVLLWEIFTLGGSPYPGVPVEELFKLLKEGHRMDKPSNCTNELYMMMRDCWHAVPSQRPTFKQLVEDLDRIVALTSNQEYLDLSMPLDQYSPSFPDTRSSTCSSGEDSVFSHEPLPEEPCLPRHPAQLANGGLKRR

Structure (SMILES): COc1cc(N2CCC3(CCN(C)CC3)CC2)ccc1Nc1ncc(Cl)c(Nc2ccccc2P(C)(C)=O)n1 [Iruplinalkib]
- inhibition of OATP1B3 uptake activity (OATP1B3 [1]; HEK293): can inhibit the uptake activity
- inhibition at 0.5 μM (OATP1B3 [1]; [5]): 7.2%
- inhibition at 5 μM (OATP1B3 [1]; [5]): 15.3%
- inhibition at 50 μM (OATP1B3 [1]; [5]): 41.1%
- inducer of CYP1A2 (CYP1A2): not an inducer
- inducer of CYP3A4 (CYP3A4; [6]): not an inducer
- induction multiples of CYP3A4 gene expression (CYP3A4; donor 1, 0.1 µM): 0.621 fold
- induction multiples of CYP3A4 gene expression (CYP3A4; donor 1, 1 µM): 2.99 fold
- induction multiples of CYP3A4 gene expression (CYP3A4; donor 1, 10 µM): 2.38 fold
- induction multiples of CYP3A4 gene expression (CYP3A4; donor 2, 0.1 µM): 0.879 fold
- induction multiples of CYP3A4 gene expression (CYP3A4; donor 2, 1 µM): 1.80 fold
- induction multiples of CYP3A4 gene expression (CYP3A4; donor 2, 10 µM): 2.81 fold
- induction multiples of CYP3A4 gene expression (CYP3A4; donor 3, 0.1 µM): 0.964 fold
- induction multiples of CYP3A4 gene expression (CYP3A4; donor 3, 1 µM): 9.36 fold
- induction multiples of CYP3A4 gene expression (CYP3A4; donor 3, 10 µM): 1.86 fold
- IC50 (FGFR1): 249 ± 71 nM
- uptake substrate of OAT3 (OAT3; HEK293): not an uptake substrate
- Uptake transport activity, Mean (OAT3; [7]): 344.0 pmol/mg protein/min
- Uptake transport activity, Repeat 1 / Repeat 2 (OAT3; [7]): 309.8 pmol/mg protein/min and 378.3 pmol/mg protein/min
- Uptake transport activity, Mean (OAT3; [8]): 88.57 pmol/mg protein/min
- Uptake transport activity, Repeat 1 / Repeat 2 (OAT3; [8]): 81.45 pmol/mg protein/min and 95.69 pmol/mg protein/min
- Ratio of uptake transit activity (OAT3; [9]): 0.92
- Uptake transport activity, Net value (OAT3; [9]): -255.5 pmol/mg protein/min
- efflux inhibitor of MRP2 (MRP2): not an efflux inhibitor
- inhibition at 0.1 μM (MRP2; probe CDCF 5 μM, MRP2, substrate CDCF 5 μM, inhibitor 0.1 μM, read-out: Inhibition rate): -7.3%
- inhibition at 0.3 μM (MRP2; probe CDCF 5 μM, MRP2, substrate CDCF 5 μM, inhibitor 0.3 μM, read-out: Inhibition rate): -8.8%
- inhibition at 1 μM (MRP2; probe CDCF 5 μM, MRP2, substrate CDCF 5 μM, inhibitor 1 μM, read-out: Inhibition rate): -4.5%
- inhibition at 3 μM (MRP2; probe CDCF 5 μM, MRP2, substrate CDCF 5 μM, inhibitor 3 μM, read-out: Inhibition rate): -4.2%
- inhibition at 10 µM (MRP2; probe CDCF, MRP2, substrate CDCF 5 μM, inhibitor 10 μM, read-out: Inhibition rate): -3.8%
- inhibition at 30 μM (MRP2; probe CDCF, MRP2, substrate CDCF 5 μM, inhibitor 30 μM, read-out: Inhibition rate): -2.8%
- inhibition at 100 μM (MRP2; probe CDCF, MRP2, substrate CDCF 5 μM, inhibitor 100 μM, read-out: Inhibition rate): -7.3%
- uptake transport activity ratio, OATP1B3 (OATP1B3 [2]; 30 µM, 3 µM, 0.3 µM, HEK293): less than two
- uptake substrate of OATP1B3 (OATP1B3 [2]; HEK293): not an uptake substrate
- Uptake transport activity, Mean (OATP1B3 [2]; 0.3 μM): 8.165 pmol/mg protein/min
- Uptake transport activity, Mean (OATP1B3 [2]; 3 μM): 57.94 pmol/mg protein/min
- Uptake transport activity, Mean (OATP1B3 [2]; 30 μM): 641.1 pmol/mg protein/min
- Ratio of uptake transit activity (OATP1B3 [2]; 0.3 μM): 1.38
- Uptake transport activity, Net value (OATP1B3 [2]; 0.3 μM): 2.263 pmol/mg protein/min
- Ratio of uptake transit activity (OATP1B3 [2]; 3 μM): 1.29
- Uptake transport activity, Net value (OATP1B3 [2]; 3 μM): 12.964 pmol/mg protein/min
- Ratio of uptake transit activity (OATP1B3 [2]; 30 μM): 1.32
- Uptake transport activity, Net value (OATP1B3 [2]; 30 μM): 156.58 pmol/mg protein/min
- Uptake transport activity, Mean (OATP1B3 [3]; MOCK293 (OATP1B3 set), 0.3 μM, Suppl. Table 11): 5.902 pmol/mg protein/min
- Uptake transport activity, Mean (OATP1B3 [3]; MOCK293 (OATP1B3 set), 3 μM, Suppl. Table 11): 44.98 pmol/mg protein/min
- Uptake transport activity, Mean (OATP1B3 [3]; MOCK293 (OATP1B3 set), 30 μM, Suppl. Table 11): 484.5 pmol/mg protein/min
- Uptake transport activity, Mean (OATP1B3 [3]; [10]): 230.3 pmol/mg protein/min
- Uptake transport activity, Repeat 1 / Repeat 2 (OATP1B3 [3]; [10]): 221.3 pmol/mg protein/min and 239.2 pmol/mg protein/min
- Uptake transport activity, Mean (OATP1B3 [3]; [11]): 327.9 pmol/mg protein/min
- Uptake transport activity, Repeat 1 / Repeat 2 (OATP1B3 [3]; [11]): 313.3 pmol/mg protein/min and 342.6 pmol/mg protein/min
- Ratio of uptake transit activity (OATP1B3 [3]; [12]): 1.42
- Uptake transport activity, Net value (OATP1B3 [3]; [12]): 97.7 pmol/mg protein/min
- inducer of CYP2B6 (CYP2B6; [6]): not an inducer
- CYP2B6 gene expression, folds of expression (CYP2B6; donor 1, 0.1 µM): 0.798 fold
- CYP2B6 gene expression, folds of expression (CYP2B6; donor 1, 1 µM): 1.36 fold
- CYP2B6 gene expression, folds of expression (CYP2B6; donor 1, 10 µM): 2.62 fold
- CYP2B6 gene expression, folds of expression (CYP2B6; donor 2, 0.1 µM): 0.862 fold
- CYP2B6 gene expression, folds of expression (CYP2B6; donor 2, 1 µM): 0.926 fold
- CYP2B6 gene expression, folds of expression (CYP2B6; donor 2, 10 µM): 4.02 fold
- CYP2B6 gene expression, folds of expression (CYP2B6; donor 3, 0.1 µM): 0.526 fold
- CYP2B6 gene expression, folds of expression (CYP2B6; donor 3, 1 µM): 1.13 fold
- CYP2B6 gene expression, folds of expression (CYP2B6; donor 3, 10 µM): 0.602 fold
- remaining rates in plasma after incubation for 5 h [4]: 95–109.3%
- recovery ([4]; CD-1 (mouse), SD (rat), Beagle (dog), plasma, read-out: recovery rates in the dialysis device): 81.8 to 99.9%
